# Assay results taken from publication PMC6182140 (Nucleic Acids Research, 2018).
# Read-outs that look alike come from different tables or passages of the source.
# B1: pol η: human recombinant translesion synthesis polymerase η, N-terminal His-tagged (protein, UniProt Q9Y253 1-713, looked up)
# DNA polymerase eta: MATGQDRVVALVDMDCFFVQVEQRQNPHLRNKPCAVVQYKSWKGGGIIAVSYEARAFGVTRSMWADDAKKLCPDLLLAQVRESRGKANLTKYREASVEVMEIMSRFAVIERASIDEAYVDLTSAVQERLQKLQGQPISADLLPSTYIEGLPQGPTTAEETVQKEGMRKQGLFQWLDSLQIDNLTSPDLQLTVGAVIVEEMRAAIERETGFQCSAGISHNKVLAKLACGLNKPNRQTLVSHGSVPQLFSQMPIRKIRSLGGKLGASVIEILGIEYMGELTQFTESQLQSHFGEKNGSWLYAMCRGIEHDPVKPRQLPKTIGCSKNFPGKTALATREQVQWWLLQLAQELEERLTKDRNDNDRVATQLVVSIRVQGDKRLSSLRRCCALTRYDAHKMSHDAFTVIKNCNTSGIQTEWSPPLTMLFLCATKFSASAPSSSTDITSFLSSDPSSLPKVPVTSSEAKTQGSGPAVTATKKATTSLESFFQKAAERQKVKEASLSSLTAPTQAPMSNSPSKPSLPFQTSQSTGTEPFFKQKSLLLKQKQLNNSSVSSPQQNPWSNCKALPNSLPTEYPGCVPVCEGVSKLEESSKATPAEMDLAHNSQSMHASSASKSVLEVTQKATPNPSLLAAEDQVPCEKCGSLVPVWDMPEHMDYHFALELQKSFLQPHSSNPQVVSAVSHQGKRNPKSPLACTNKRPRPEGMQTLESFFKPLTH
# modifications: N-terminal His tag
# notes: human recombinant translesion synthesis polymerase η, N-terminal His-tagged
# Key:
# PCNA (Homo sapiens) [1] = target: PCNA (Homo sapiens) (UniProt P12004); test: ITC; details: cited from earlier work
# pol η–PCNA holoenzyme [2] = test: TLS time course of pol η on cisPt(GG) template; type: biochemical, human; details: cisPt(GG) template 10 nM, pol η 40 nM; p15 with equimolar PCNA (p15), 10-fold excess PCNA (PCNA), or pol η alone; pH 8, 37°C
# Procedure: (§1) The 24-mer template oligonucleotide containing the cis-PtGG adduct was a kind gift from S.J. Sturla (ETH, Zürich) and was prepared and purified as described previously (Nilforoushan, 2015). All other DNA oligonucleotides, all HPLC purified, were synthesized by Biomers.net (Germany). The 18mer primer oligonucleotide was 5′-labeled with carboxyfluorescin (FAM) group. The labeled primer was mixed to the complementary template oligonucleotide at 1:1 (M/M) ratio in the presence of 150 mM Hepes–KOH pH 7.4, 500 mM KCl, 10 mM MgCl2, 250 mM NH4Ac, heated at 95°C for 5 min and then slowly cooled at room temperature.
# pJM879 ([33]), expressing N-terminal His-tagged human pol η, was a kind gift from R. Woodgate (NIH, USA). Human recombinant pol η was expressed and purified with a modified protocol: BL21 DE3 competent E. coli cells were transformed with pJM879. Plates containing […] kanamycin were used to identify kanamycin-resistant colonies that were picked and grown overnight at 37°C. […] Transformed E. coli cells were used to inoculate a 50 ml starter culture. After overnight growth at 37°C, 12 ml of the starter culture were put into 1 l of LB medium (containing […] kanamycin). After 6 h growth at 37°C, cells were harvested by centrifugation and pellet frozen at –80°C. […]
# pol η–PCNA holoenzyme [3] = test: DNA synthesis by pol η on undamaged template; type: biochemical, human
# Procedure: as §1
# pJM879 ([33]), expressing N-terminal His-tagged human pol η, was a kind gift from R. Woodgate (NIH, USA). Human recombinant pol η was expressed and purified with a modified protocol: BL21 DE3 competent E. coli cells were transformed with pJM879. Plates containing […] kanamycin were used to identify kanamycin-resistant colonies that were picked and grown overnight at 37°C. […] Transformed E. coli cells were used to inoculate a 50 ml starter culture. After overnight growth at 37°C, 12 ml of the starter culture were put into 1 l of LB medium (containing […] kanamycin). After 6 h growth at 37°C, cells were harvested by centrifugation and pellet frozen at –80°C. The pellet was resuspended in 40ml of lysis buffer (50mM Tris–HCl pH 7.5, 0.3 M NaCl, 20 mM imidazole, 10% glycerol, 10 mM b-mercaptoethanol [BME], 1× lysozime (Eurobio, Courtaboeuf, France), 1× ethylenediaminetetraacetic acid [EDTA]-free protease inhibitor ([…]™ Protease Inhibitor Cocktail Tablets, Sigma-Aldrich), 1 mM phenylmethane sulfonyl fluoride [PMSF] and lysed through sonication. After ultracentrifugation at 98 000g at 4°C for 1.5 h, the supernatant was loaded onto a 1-ml Ni-NTA column (HisTrap™ HP, GE Healthcare). Column washing was performed with 3 ml of W1 buffer ([…] pH 7.5, 1 M NaCl, 20 mM imidazole, 10% glycerol, 10 mM BME) followed by 3 ml of W2 buffer (10 mM Na-phosphate pH 7.7, 0.3 M NaCl, 20 mM imidazole, 10% glycerol, 10 mM BME). Elution of target protein was obtained using buffer H (10 mM Na-phosphate pH 7.7, 0.3 M NaCl, 200 mM imidazole, 10% glycerol, 10 mM BME). The pol η positive fractions (0.5 ml each) were pooled and overnight dialyzed with buffer M (20 mM Na-phosphate pH 7.3, 0.1 M NaCl, 10% glycerol, 10 mM BME), in dialysis cassette (Slide-A-Lyzer™ Dialysis Cassettes, 3.5K MWCO, Thermo Scientific). Pool was then loaded onto a 1-ml cation exchanger column (HiTrap SP, Pharmacia Biotech). Buffer N (20 mM Na-phosphate pH 7.3, 0.5 M NaCl, 10% glycerol, 10 mM BME) was used to elute pol η with a linear gradient. The pol ηpositive fractions (0.5 ml each) were aliquoted and stored at –80°C in 20% final glycerol.
# (§2) All reactions were performed in a 10 μl final volume using the following conditions: 40 mM Tris pH 8, 1 mM dithiotreitol (DTT), 0.25 mg/ml bovine serum albumin (BSA), 10 mM Mg^2+ (unless otherwise stated in the figures or figure legends). Reactions were incubated at 37°C for 15 min, unless otherwise stated. Reaction mixtures were stopped by addition of standard denaturing gel loading buffer (95% formamide, […], xylene cyanol and bromophenol blue), heated at 95°C for 5 min and loaded on a 7-M urea 12% polyacrylamide (PA) gel.
# Figure 4. […] Reactants at the indicated concentrations were incubated at 37°C for 30 s and the reaction was stopped by addition of standard denaturing gel loading buffer.
# pol η–PCNA holoenzyme [4] = test: TLS by pol η on cis-Pt template in the presence of RF-C; type: biochemical, human; details: 50 µM dNTPs, 0.5 mM ATP, 150 nM ScRF-C, 400 nM pol η, 400 nM p15, 50 nM PCNA
# Procedure: Recombinant ScRF-C was obtained as a kind gift from the laboratory of Alessandro Costa (Francis Crick Institute), and was prepared following the procedure described in ([34]).
# as §2
# 18/24mer primer-template substrate bearing a cis-Pt adduct at the two guanines at positions +1
# and +2 of the template strand, in the presence of RF-C and in the absence (lanes 10-13) or in the
# Reactant concentrations were: 50
# (1 picture or pasted object on this page, not shown here)
# pol η = test: DNA synthesis by pol η without PCNA, undamaged control template; type: biochemical, human; details: pol η 70 nM, p15 400 nM, no PCNA, control template 10 nM
# Procedure: pJM879 ([33]), expressing N-terminal His-tagged human pol η, was a kind gift from R. Woodgate (NIH, USA). Human recombinant pol η was expressed and purified with a modified protocol: BL21 DE3 competent E. coli cells were transformed with pJM879. Plates containing […] kanamycin were used to identify kanamycin-resistant colonies that were picked and grown overnight at 37°C. DNA purified from bacterial cultures using NucleoSpin® Plasmid (NoLid) kit ([…]-NAGEL, Düren, Germany) was digested to confirm the presence of the gene expressing pol η. Transformed E. coli cells were used to inoculate a 50 ml starter culture. After overnight growth at 37°C, 12 ml of the starter culture were put into 1 l of LB medium (containing […] kanamycin). After 6 h growth at 37°C, cells were harvested by centrifugation and pellet frozen at –80°C. […]
# DNA = details: cited from earlier work
# Procedure: (§3) Thus, each dNTP insertion step is carried out by a combination of pol η alone and pol η holoenzyme. However, if ...
# PCNA (Homo sapiens) [5] = target: PCNA (Homo sapiens) (UniProt P12004); test: SPR; details: cited from earlier work
# PCNA = details: read-out: Kd pol η–PCNA (SPR); surface plasmon resonance at 25°C; cited from earlier work
# Procedure: as §3
# Chain of UniProt P12004 (P12004 whole entry): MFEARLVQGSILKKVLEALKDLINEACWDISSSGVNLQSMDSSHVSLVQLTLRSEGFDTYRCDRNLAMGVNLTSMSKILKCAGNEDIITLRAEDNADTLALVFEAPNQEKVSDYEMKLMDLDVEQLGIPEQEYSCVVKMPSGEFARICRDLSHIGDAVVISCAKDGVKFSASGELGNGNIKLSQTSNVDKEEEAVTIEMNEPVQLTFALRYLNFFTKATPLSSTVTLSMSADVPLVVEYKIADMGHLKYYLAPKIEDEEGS
molecule,measurement,setting,value
p15PAF (from UniProt Q15004),Kd,PCNA (Homo sapiens) [1],1100 nM
"p15: PCNA–associated factor, oncogenic 11 kDa intrinsically disordered protein",effect on lesion bypass / nucleotide incorporation,pol η–PCNA holoenzyme [2],reduced nucleotide incorporation at +2 and +3 positions
same,effect on nucleotide incorporation at initial time point,"pol η–PCNA holoenzyme [3]; undamaged template 10 nM, with PCNA and p15 equimolar, lane 2, 37°C, pH 8",reduced nucleotide incorporation at position +2
same,effect on synthesis of full-length product,"pol η–PCNA holoenzyme [3]; undamaged template 10 nM, with PCNA and p15 equimolar, lanes 3–5, 37°C, pH 8",slowed down the synthesis of the full-length product
same,comparison of pol η inhibition by p15 and p15^41–72 in conjunction with PCNA,"pol η–PCNA holoenzyme [3]; undamaged template, 37°C for 30 s",able to reduce pol η synthesis at comparable levels
same,effect on DNA synthesis in combination with PCNA,"pol η–PCNA holoenzyme [3]; undamaged template, 37°C for 30 s, with respect to pol η and PCNA alone, synthesis stopped at +1 and +2",reduction of DNA synthesis
same,effect on TLS in the presence of RF-C,pol η–PCNA holoenzyme [4]; 40 nM cis-Pt 18/24mer,delays TLS by pol η–PCNA across a cis-Pt lesion even in the presence of RF-C
same,accumulated products in the presence of RF-C,pol η–PCNA holoenzyme [4]; p15 in combination with PCNA,accumulation of +1 and +2 products
same,effect of p15 alone on pol η activity,pol η,does not affect the activity of the polymerase
same,Kd,DNA; read-out: affinity of p15 for DNA,5000 nM
pol η (from UniProt Q9Y253),Kd,PCNA (Homo sapiens) [5],400 nM
B1,effect on lesion bypass / nucleotide incorporation,pol η–PCNA holoenzyme [2],able to complete the bypass
same,processivity,"pol η–PCNA holoenzyme [3]; undamaged template 10 nM, pol η alone or with PCNA, 37°C, pH 8",equal processivity
same,Kd,DNA; read-out: affinity of pol η for DNA,30 nM
same,Kd,PCNA,400 nM
